Our source for the IC50 values is US20150344444A1, “BET-PROTEIN-INHIBITING DIHYDROXYQUINOXALINONES” (BAYER PHARMA AKTIENGESELLSCHAFT, priority 2012, published 2015).

Each structure is given as a SMILES string.

One assay deals with MOLM-13 cells. As to the kind of experiment: MOLM-13 cell proliferation assay (alamarBlue). The class given is cell-based. Particulars: inhibition of cell proliferation, 96 hours, human AML cell line. The method in brief: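 MOLM-13 AML cells (4000/well, RPMI1640 + 10% FCS) treated 96 h at 37 °C with 1E-5 to 1E-8 M compound. Proliferation by alamarBlue fluorescence (ex 530/em 590), pre-treatment reading subtracted; IC50 versus buffer-treated cells.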
A general note: The colour change of resazurin is a common sign of viable cells or microbes.

For the next assay, the system named is MOLP-8 cells. As to the kind of experiment: MOLP-8 cell proliferation assay (alamarBlue). The format is cell-based. The note with it: inhibition of cell proliferation, 120 hours, human multiple myeloma cell line. The essentials:
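MOLP-8 myeloma cells in RPMI1640/20% FCS were treated with compound from 1E-5 to 1E-8 M for 120 h at 37 °C. Proliferation was measured by alamarBlue fluorescence (ex 530, em 590 nm), and the reading taken before dosing was subtracted. IC50 is relative to buffer-treated cells.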

The subject of a further assay is B16F10 cells. The assay is described as follows: B16F10 cell proliferation assay (alamarBlue). Particulars: B16-F10; inhibition of cell proliferation, 96 hours, mouse melanoma cell line. The class given is cell-based. The essentials:
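Mouse B16F10 melanoma cells (300-500/well, DMEM, 10% FCS) treated with compound at 1E-5 to 1E-8 M for 96 h at 37° C. alamarBlue fluorescence (ex 530/em 590 nm) before and after treatment; the difference compared to buffer-treated cells gives IC50 for proliferation inhibition.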

The target in assay [1] is T1, BRD4 Bromo Domain 2 [BRD4(2)] (Homo sapiens, UniProt O60885).
T1 construct: N-terminally His6-tagged BRD4(2) (amino acids 357-445); made in house; host or cells: E. coli
As to the kind of experiment: BRD4(2)/acetylated peptide H4 binding assay (TR-FRET). Particulars: inhibition of interaction between His6-tagged BRD4(2) (amino acids 357-445) and acetylated histone H4 peptide. The method in brief: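 His6-BRD4(2) aa 357-445 (E. coli) at typically 100 nM, biotinylated tetra-acetylated H4 peptide; HEPES pH 7.5 with NaCl, KF, CHAPS, BSA. 10-min compound preincubation, then 1 h at 22 °C plus ≥3 h at 4 °C; 665/620 nm TR-FRET ratio. IC50 from 4-parameter fit, 11 concentrations 0.1 nM–20 μM, duplicates.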
For orientation: TR-FRET usually uses a lanthanide donor and a delayed reading to cut background.

Turning to `C[C@@H]1C(=O)N(C)c2ccc(Nc3ccc(S(=O)(=O)N(C)C)cc3)cc2N1C1CCCCCC1` [Example 45, 4-{[(3R)-4-cycloheptyl-1,3-dimethyl-2-oxo-1,2,3,4-tetrahydroquinoxalin-6-yl]amino}-N,N-dimethylbenzenesulphonamide], the IC50 in the assay with MOLM-13 cells is 1340 nM; with MOLP-8 cells it was 1100 nM; with B16F10 cells, 1570 nM; in assay [1] it was 83 nM.
As for `C[C@@H]1C(=O)N(C)c2ccc(Nc3ccc(S(=O)(=O)N(C)C)cc3)cc2N1C1CCOCC1` [Example 46, 4-{[(3R)-1,3-dimethyl-2-oxo-4-(tetrahydro-2H-pyran-4-yl)-1,2,3,4-tetrahydroquinoxalin-6-yl]amino}-N,N-dimethylbenzenesulphonamide], the half-maximal inhibitory concentration (IC50) with MOLM-13 cells came to 719 nM; with MOLP-8 cells it was 365 nM; in the assay with B16F10 cells, 600 nM; in assay [1], 148 nM.
For the molecule `C[C@@H]1C(=O)N(C)c2ccc(Nc3ccc(S(=O)(=O)N4CCOCC4)cc3)cc2N1C1CCOCC1` [Example 47, (3R)-1,3-dimethyl-6-{[4-(morpholin-4-ylsulphonyl)phenyl]amino}-4-(tetrahydro-2H-pyran-4-yl)-3,4-dihydroquinoxalin-2(1H)-one], the IC50 with MOLM-13 cells turned out to be 407 nM; in the assay on MOLP-8 cells, 496 nM; in the assay on B16F10 cells, 423 nM; in assay [1] it was 134 nM.
`C[C@@H]1C(=O)N(C)c2ccc(Nc3ccc(S(=O)(=O)N4CCN(C)CC4)cc3)cc2N1C1CCOCC1` [Example 48, (3R)-1,3-dimethyl-6-({4-[(4-methylpiperazin-1-yl)sulphonyl]phenyl}amino)-4-(tetrahydro-2H-pyran-4-yl)-3,4-dihydroquinoxalin-2(1H)-one]: the IC50 turned out to be 1250 nM with MOLM-13 cells, 803 nM with MOLP-8 cells, 1450 nM with B16F10 cells and 112 nM in assay [1].

A word on the IC50: it is the point on the concentration scale where inhibition reaches its midpoint. Read a high IC50 as lower potency.
